The values that follow come from patent US20180000778A1, “SMALL MOLECULE ANTAGONISTS OF DUSP5 AND METHODS OF USE” (THE MEDICAL COLLEGE OF WISCONSIN, INC., priority 2015, published 2018).

One series concerns the target T1, DUSP5 PD(WT) (Homo sapiens, UniProt Q16690).
T1 construct: hexa-histidine (N); made in house; host or cells: E. coli BL21(DE3)
T1 sequence (Q16690 178-319 limits assumed): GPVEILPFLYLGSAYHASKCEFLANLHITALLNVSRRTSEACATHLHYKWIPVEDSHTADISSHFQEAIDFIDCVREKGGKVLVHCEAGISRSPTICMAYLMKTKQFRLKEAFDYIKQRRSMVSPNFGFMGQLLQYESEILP
The series can be described thus: pNPP phosphatase activity assay with DUSP5 PD(WT). The class given is biochemical. The text has this: p-Nitrophenolphosphatase (pNPP) Activity Assay.
To measure enzymatic activity of the DUSP5 PD and the inhibitory capacity of selected molecules, an in vitro phosphatase assay was developed based on previous studies (27). In this assay, DUSP5 PD dephosphorylates the substrate p-nitrophenol phosphate (pNPP, Sigma Aldrich), yielding p-nitrophenolate, which absorbs at 405 nm with an extinction coefficient of 18,000 M-1 cm-1.
Thus, an increase in absorbance at 405 nm corresponds to the turnover of pNPP top-nitrophenolate. The assay was initially optimized in 1 mL quartz cuvettes, then was subsequently optimized for and validated in a 96-well plate format. All IC50 values were obtained using the 96-well plate assay format (see below). The assay buffer contained 100 mM Tris, 100 mM sodium chloride, 5 mM magnesium chloride, and 1 mM dithiothreitol (DTT) at pH 7.5. The pNPP substrate was prepared as a 50 mM stock by dissolving the solid substrate in assay buffer. The DUSP5 PD and pNPP were assayed initially in a cuvette (1 mL total volume) and initial velocities were fitted to the Michaelis-Menten equation (1)
where v is the initial velocity, Vmax is the maximum velocity, Km is the Michaelis constant, and [S] is the concentration of pNPP. Data were fitted using a nonlinear least squares fit to eq. 1, with GraphPad Prism 6 software.
For the 96-well plate validation assay, sodium orthovanadate (Sigma Aldrich) was utilized as a positive control for inhibition (Swarup et al., Biochem Biophys Res Commun. 1982; 107:1104-9.) at a final concentration of 10 μM, to completely block activity. All plate assays were performed in standard 96-well clear bottom plates (Thermo Scientific Nunc) with a total assay volume of 200 μL, using a SpectraMax M5 Microplate Reader (Molecular Devices). The plate validation assay was performed with replicate columns of positive control wells, negative control wells and blank wells. Blank columns contained only buffer and pNPP. Negative control (uninhibited) contained buffer, pNPP, and DUSP5 PD; and, positive control contained the same components, but also contained 10 μM sodium orthovanadate. The plate was then shaken and allowed to equilibrate in the spectrophotometer at 25° C. for 30 min. After incubation, 4 μL of a […] was dispensed into appropriate wells utilizing a single-channel pipette. This produced a final enzyme concentration of 1 μM. Before a read was taken, the plate was shaken for five seconds. The initial rate for the DUSP5 PD reaction was linear for approximately 90 min; and, the plate was kept in the spectrophotometer at 25° C. for an additional 80 min after the kinetic read. The endpoint reading was subsequently taken at 90 min after initiation of reaction. Slopes from the kinetic read, as well as single-point absorbance values at the 90-minute endpoint read, were then averaged. For blank wells and positive control wells, both slope values (continuous assay) and single point absorbance values (fixed time assay) were approximately zero, as expected. Standard deviations were calculated and a Z′ value (Zhang et al., J Biomol Screening. 1999; 4:67-73) subsequently determined using the following equation: […]
IC50 values were obtained using the assay described above, in 96 well plates. The maximum inhibitor concentration screened in any plate was […] and the minimum was 1.5 μM. The IC50 plate was designed so that the first column of wells served as blanks, with wells containing only buffer and substrate. The second column of wells functioned as the plate negative control, with each well containing buffer, substrate and enzyme. The remaining wells in the plate contained buffer, substrate, enzyme, and varying amounts of inhibitor, with inhibitor concentration increasing from left to right across the plate. Data points were collected in triplicate, and inhibitor concentrations were chosen to provide data equally spread on a logarithmic scale. […]

The subject of series [1] is pERK levels in HUVEC cells. The series can be described thus: pERK levels in HUVEC cells, western blot. The class given is cell-based, Human. Particulars: HUVECs incubated 2 hours, pERK relative to total ERK; Na3VO4 at 200 μM. The method, then: Cell Culture and Western Blots.
Human Umbilical Vein Endothelial Cells (HUVECs) were maintained in EBM2 media (Lonza, CC-3156) supplemented with a combined serum and growth factor kit (Lonza, CC-4176). Cells were incubated with the indicated concentrations of drug for 2 h and lysed with RIPA buffer (Sigma, R0278) on ice. Cell lysates were cleared by centrifugation at 16,300×g for 30 min. The resulting supernatants were isolated and protein concentration determined by Lowry assay (DC protein assay, BioRad). 2× laemmli sample buffer was added to equal amounts of protein and separated by SDS-PAGE. The protein gels were transferred to polyvinylidene difluoride (PVDF) and immunoblotted using antibodies to phosphorylated ERK (Cell Signaling, #9106) and total ERK (Cell Signaling, #9102). Bound antibodies were visualized using horseradish peroxidase-linked anti-rabbit IgG, anti-mouse IgG (Cell Signaling Tech., #7074 and #7076) and ECL reagents (Thermo Scientific, 34080) according to the manufacturer's protocol.

Series [2] has as its system normal vasculature in a developing embryo. As to the kind of experiment: Effect on normal vasculature in a developing embryo.
Series [3] is described as follows: Aggregation of compounds (nephelometry; detergent treatment). The class given is physicochemical. The method, then:
Nephelometry is a technique for measuring the relative aggregation of particles in solution, based on the light-scattering properties of molecular aggregates (30). To explore the ability of the chemicals studied herein to form aggregates, which can lead to artifactual inhibition effects, nephelometry was performed. Compounds were tested for aggregation in 96-well plates using a buffer containing 100 mM Tris base, 100 mM sodium chloride, and 5 mM magnesium chloride at pH 7.5. Each compound analyzed in these experiments contained concentrations of compound ranging from 10-100 μM, recorded in quadruplet. Each plate was analyzed at two separate gain values of 52 and 72. Data were collected using a BMG NEPHELOstar Plus, equipped with a 635 nm laser.
To investigate whether Suramin aggregates in solution, a property often investigated with small molecules, we performed detergent treatment assays. […] NTS and Suramin were compared using DUSP5 PD IC50 assays performed with and without detergent. […] We concluded that Suramin forms aggregates in vitro which can lead to non-specific protein inhibition effects. Beyond any adverse implications for repurposing Suramin in this project, the aggregation phenomenon raises more global concerns regarding the current clinical use of Suramin, and may in part explain some of the known toxicity associated with Suramin (32).

pIC50: −log10 of the molar value.

For `O=S(=O)([O-])c1ccc2[nH]c3c(S(=O)(=O)[O-])cc(S(=O)(=O)[O-])cc3c2c1.[Na+].[Na+].[Na+]` [RR505, Carbazole-1,3,6-trisulfonic acid, Trisodium Salt], at DUSP5 PD(WT) (enzyme inhibition (FIG. 3)), the “IC50's, range in words” value is on record as “mM range”. The “effect on pERK levels” value in series [1] is “do not show biologically useful levels of potency”. Also, the “effect on normal vasculature” value in series [2] is on record as “does not appear to affect normal vasculature”.
Consider `O=S(=O)(O)c1cc(O)c2c(S(=O)(=O)O)cccc2c1` [RR527], for which the negative logarithm of the IC50 (pIC50) against DUSP5 PD(WT) (pNPP assay with DUSP5 PD) is 3.32; against DUSP5 PD(WT) (phosphatase domain alone, pNPP), 1.48. In addition, the aggregation result in series [3] is given as “no propensity to aggregate”.
